{"source": "patent US8846704B2", "about": "“Thiopyrimidine-based compounds and uses thereof” (YM Biosciences Austraila Pty Ltd, priority 2007, dated 2014)", "data": [{"molecular_target": "T1, BaF3 TELJAK3 cells (Homo sapiens, UniProt P52333)", "T1 construct": "fused on or other part: TEL (ETV6) N-terminal part, coding nucleotides 1-487, serves as the oligomerising partner; It is fused through a Sal I site to the JAK3 kinase domain and expressed from pTRE2 in BaF3 cells bearing pTET-off; P41212 (Transcription factor ETV6)", "T1 sequence (P52333 1-1124)": "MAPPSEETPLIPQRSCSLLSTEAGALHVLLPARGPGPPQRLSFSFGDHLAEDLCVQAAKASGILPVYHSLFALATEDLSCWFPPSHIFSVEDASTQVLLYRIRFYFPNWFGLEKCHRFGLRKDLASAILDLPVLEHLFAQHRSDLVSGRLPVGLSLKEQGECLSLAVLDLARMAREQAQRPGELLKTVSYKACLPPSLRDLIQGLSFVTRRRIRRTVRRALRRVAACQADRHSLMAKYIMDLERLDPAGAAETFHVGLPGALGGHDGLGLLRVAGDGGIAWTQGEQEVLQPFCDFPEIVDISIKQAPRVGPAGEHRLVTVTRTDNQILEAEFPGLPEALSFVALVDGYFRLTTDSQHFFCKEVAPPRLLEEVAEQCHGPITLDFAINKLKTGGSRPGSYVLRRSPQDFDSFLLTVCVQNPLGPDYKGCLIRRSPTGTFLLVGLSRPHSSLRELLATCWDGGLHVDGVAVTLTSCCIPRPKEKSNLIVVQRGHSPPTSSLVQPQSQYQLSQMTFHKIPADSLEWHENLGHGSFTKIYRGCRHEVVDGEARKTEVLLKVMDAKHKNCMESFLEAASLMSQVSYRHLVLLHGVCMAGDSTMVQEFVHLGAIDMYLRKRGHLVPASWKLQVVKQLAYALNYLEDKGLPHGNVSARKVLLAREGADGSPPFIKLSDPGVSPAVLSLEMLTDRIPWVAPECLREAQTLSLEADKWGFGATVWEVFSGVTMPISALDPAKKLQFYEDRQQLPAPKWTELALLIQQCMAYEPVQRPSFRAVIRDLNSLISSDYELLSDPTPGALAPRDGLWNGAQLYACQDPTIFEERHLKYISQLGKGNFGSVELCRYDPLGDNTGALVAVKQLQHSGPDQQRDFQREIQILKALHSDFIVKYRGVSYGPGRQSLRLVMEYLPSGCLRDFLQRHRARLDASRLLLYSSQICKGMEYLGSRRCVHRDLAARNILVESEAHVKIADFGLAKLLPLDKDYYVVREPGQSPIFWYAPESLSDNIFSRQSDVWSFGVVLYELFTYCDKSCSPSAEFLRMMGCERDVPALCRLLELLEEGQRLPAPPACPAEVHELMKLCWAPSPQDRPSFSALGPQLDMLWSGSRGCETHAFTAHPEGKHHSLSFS", "assay": "Cellular screening, BaF3 TEL:JAK3 cells, Alamar Blue", "format": "cell-based", "conditions": "40 hr, read-out: BafT_J3 IC50_nM", "method": "For screening purposes, compounds were diluted in 96 well plates at a concentration of 20 μM. Plates were warmed at 37° C. for 30 minutes before the assay was performed.\nThe coding region encompassing nucleotides 1-487 of TEL was amplified by PCR using the oligonucleotides STEL (5′-GGAGGATCCTGATCTCTCTCGCTGTGAGAC-3′) [SEQ ID NO 14] and 3TEL (5′-AGGC GTCGACTTCTTCTTCATGGTTCTG-3′) [SEQ ID NO 15] and U937 mRNA as a template. A […] restriction site was incorporated into the STEL primer, and a Sal I restriction site was incorporated into the 3TEL primer. The regions encompassing the kinase domain of JAK2 (nucleotides 2994-3914; JAK2F 5′-ACGC GTCGACGGTGCCTTTGAAGACCGGGAT-3′ [SEQ ID NO 16]; JAK2R 5′-ATAGTTTAGCGGCCGCTCAGAATGAAGGTCATTT-3′) [SEQ ID NO 17] and JAK3 (nucleotides 2520-3469; JAK3F 5′-GAAGTCGACTATGCCTGCCAAGACCCCACGATCTT-3′) [SEQ ID NO 18] were generated by PCR using Taq DNA polymerase (Gibco/BRL) and […] as a template. A Sal I restriction site was incorporated into the forward primer of JAK2 and JAK3, a Not I site was incorporated into the JAK2 reverse primer and a Xba I site was added to the reverse primer of JAK3.\nThe TEL/Jak3 fusion was prepared by ligation of the JAK3 Sal I/Not I cleaved kinase domain PCR product with the BamH I/Sal I restriction digested TEL product, followed by ligation of the ligation product into the BamH I/Not I digested pTRE2, to give the TEL/Jak3 fusion plasmid pTELJAK3.\nThe growth factor dependant myelomonocytic cell line BaF3 bearing the pTET-off plasmid (Clontech) was transfected with either pTELJAK2 or pTELJAK3, and the transfected cells were selected for growth-factor independent cell growth. The BaF3 wild-type cells were cultured in DMEM containing 10% FCS, 10% WEHI 3B conditioned medium. The BaF3 TELJAK cells ([…]) were cultured in DMEM 10% Tet-System Approved FBS (without WEHI 3B conditioned medium).\nCell suspensions were prepared by harvesting cells from culture (the cells used in this test were in late log phase growth with high viability.) Cells were diluted in the appropriate growth medium, as described above, to 1.1× final concentration (from 50,000 cell/mL to 200,000 cell/mL, depending on cell line).\nCompounds to be tested were added (10 μL, 10× final concentration) to a flat bottomed 96-well plate. The cellular suspension (90 μL per well) was then added, and the plate incubated for 40 hr at 37° C., 5% CO2. Alamar Blue 10 μL per well was added and the plates returned to the incubator for a further 4-6 hours. The plates were then read at 544 nm.", "units": {"GI50": "nM"}, "values": [{"smiles": "N#Cc1nnn(Cc2ccc(Sc3ccnc(Nc4ccc(N5CCOCC5)cc4)n3)cc2)n1", "note": "[Compound 156, 2-(4-(2-(4-morpholinophenylao)pyrimidin-4-ylthio)benzyl)-2H-tetrazole-5-carbonitrile]", "GI50": "< 5000"}, {"smiles": "C=CC(=O)Nc1ccc(Sc2nc(Nc3cccc(NS(C)(=O)=O)c3)ncc2C)cc1", "note": "[Compound 288, N-(4-(5-methyl-2-(3-(methylsulfonamido)phenylao)pyrimidin-4-ylthio)phenyl)acrylamide]", "GI50": "< 1000"}, {"smiles": "C=CC(=O)NCc1cccc(Sc2ccnc(Nc3ccc(N4CCOCC4)cc3)n2)c1", "note": "[Compound 112, N-(3-(2-(4-morpholinophenylamino)pyrimidin-4-ylthio)benzyl)acrylamide]", "GI50": "< 20000"}, {"smiles": "C=CC(=O)Nc1ccc(Sc2nc(Nc3ccc(N4CCC(O)C4)cc3)ncc2C)cc1", "note": "(stereo not shown) [Compound 295, N-(4-(2-(4-(3-hydroxypyrrolidin-1-yl)phenylao)-5-methylpyrimidin-4-ylthio)phenyl)acrylamide]", "GI50": "< 1000"}, {"smiles": "Cc1cnc(Nc2ccc(N3CCOCC3)cc2)nc1Sc1ccc(N2C(=O)C=C(Br)C2=O)cc1", "note": "[Compound 382, 3-bromo-1-(4-(5-methyl-2-(4-morpholinophenylao)pyrimidin-4-ylthio)phenyl)-1H-pyrrole-2,5-dione]", "GI50": "< 20000"}, {"smiles": "C=CC(=O)Nc1ccc(Sc2nc(Nc3ccc(N4CCOCC4)c(OC)c3)ncc2C)cc1", "note": "[Compound 248, N-(4-(2-(3-methoxy-4-morpholinophenylao)-5-methylpyrimidin-4-ylthio)phenyl)acrylamide]", "GI50": "< 1000"}, {"smiles": "C=CC(=O)Nc1ccc(Sc2nc(Nc3ccc(N4CCN(C)CC4)c(OC)c3)ncc2C)cc1", "note": "[Compound 249, N-(4-(2-(3-methoxy-4-(4-methylpiperazin-1-yl)phenylao)-5-methylpyrimidin-4-ylthio)phenyl)acrylamide]", "GI50": "< 1000"}, {"smiles": "Cc1cnc(Nc2ccc(N3CCOCC3)cc2)nc1Sc1ccc(N)cc1Cl", "note": "[Compound 251, 4-(4-ao-2-chlorophenylthio)-5-methyl-N-(4-morpholinophenyl)pyrimidin-2-ae]", "GI50": "> 20000"}, {"smiles": "CC#CC(=O)Nc1cccc(Sc2ccnc(Nc3cccc(N4CCOCC4)c3)n2)c1", "note": "[Compound 232, N-(3-(2-(3-morpholinophenylao)pyrimidin-4-ylthio)phenyl)but-2-ynamide]", "GI50": "< 5000"}, {"smiles": "C=CC(=O)Nc1ccc(Sc2nc(Nc3ccc(N4CCN(C)CC4)cc3)ncc2C)cc1", "note": "[Compound 239, N-(4-(5-methyl-2-(4-(4-methylpiperazin-1-yl)phenylao)pyrimidin-4-ylthio)phenyl)acrylamide]", "GI50": "< 1000"}, {"smiles": "C=CC(=O)Nc1ccc(Sc2ccnc(Nc3ccc(N4CCOCC4)cc3)n2)cc1OC", "note": "[Compound 123, N-(2-methoxy-4-(2-(4-morpholinophenylao)pyrimidin-4-ylthio)phenyl)acrylamide]", "GI50": "< 5000"}, {"smiles": "C=CC(=O)Nc1cccc(Sc2ccnc(Nc3ccc(N4CCOCC4)cc3)n2)c1", "note": "[Compound 23, N-(3-(2-(4-morpholinophenylamino)pyrimidin-4-ylthio)phenyl)acrylamide]", "GI50": "< 1000"}, {"smiles": "Cc1cnc(Nc2ccc(N3CCOCC3)cc2)nc1Sc1ccc(NC(=O)/C=C\\C(=O)O)cc1", "note": "[Compound 380, (Z)-4-(4-(5-methyl-2-(4-morpholinophenylao)pyrimidin-4-ylthio)phenylao)-4-oxobut-2-enoic acid]", "GI50": "> 20000"}, {"smiles": "C=CC(=O)Nc1ccc(Sc2ccnc(Nc3ccc(O)cc3)n2)cc1", "note": "[Compound 276, N-(4-(2-(4-hydroxyphenylao)pyrimidin-4-ylthio)phenyl)acrylamide]", "GI50": "< 1000"}, {"smiles": "C=CC(=O)Nc1ccc(Sc2nc(Nc3cccc(N4CCOCC4)c3)ncc2F)cc1", "note": "[Compound 267, N-(4-(5-fluoro-2-(3-morpholinophenylao)pyrimidin-4-ylthio)phenyl)acrylamide]", "GI50": "< 1000"}, {"smiles": "C=CC(=O)Nc1cccc(Nc2nccc(Sc3ccccc3)n2)c1", "note": "[Compound 16, N-(3-(4-(phenylthio)pyrimidin-2-ylamino)phenyl)acrylamide]", "GI50": "< 1000"}, {"smiles": "C=CC(=O)Nc1ccc(Sc2nc(Nc3ccc(OCCN4CCOCC4)cc3)ncc2C)cc1", "note": "[Compound 290, N-(4-(5-methyl-2-(4-(2-morpholinoethoxy)phenylao)pyrimidin-4-ylthio)phenyl)acrylamide]", "GI50": "< 1000"}, {"smiles": "C=CC(=O)Nc1ccc(Sc2nc(Nc3cccc(OC)c3)ncc2C)cc1", "note": "[Compound 235, N-(4-(2-(3-methoxyphenylao)-5-methylpyrimidin-4-ylthio)phenyl)acrylamide]", "GI50": "< 1000"}, {"smiles": "C=CC(=O)Nc1cccc(Nc2nccc(Sc3ccc(OC)cc3)n2)c1", "note": "[Compound 42, N-(3-(4-(4-methoxyphenylthio)pyrimidin-2-ylao)phenyl)acrylamide]", "GI50": "< 5000"}, {"smiles": "N#CCC(=O)Nc1cccc(Sc2ccnc(Nc3ccc(N4CCOCC4)cc3)n2)c1", "note": "[Compound 24, N-(3-(2-(4-morpholinophenylamino)pyrimidin-4-ylthio)phenyl)-2-cyanoacetamide]", "GI50": "< 20000"}, {"smiles": "C=CC(=O)Nc1ccc(Sc2nc(Nc3cccc(N4CCOCC4)c3)ncc2I)cc1", "note": "[Compound 269, N-(4-(5-iodo-2-(3-morpholinophenylao)pyrimidin-4-ylthio)phenyl)acrylamide]", "GI50": "< 1000"}, {"smiles": "C=CC(=O)Nc1ccc(Sc2ccnc(Nc3ccc(S(N)(=O)=O)c(OC)c3)n2)cc1", "note": "[Compound 374, N-(4-(2-(3-methoxy-4-sulfamoylphenylao)pyrimidin-4-ylthio)phenyl)acrylamide]", "GI50": "< 1000"}, {"smiles": "C=CC(=O)Nc1ccc(Sc2nc(Nc3ccc(N4CCC(CO)CC4)cc3)ncc2Br)cc1", "note": "[Compound 253, N-(4-(5-bromo-2-(4-(4-(hydroxymethyl)piperidin-1-yl)phenylao)pyrimidin-4-ylthio)phenyl)acrylamide]", "GI50": "< 1000"}, {"smiles": "CCOC(=O)/C=C/C(=O)Nc1ccc(Sc2nc(Nc3ccc(N4CCOCC4)cc3)ncc2C)cc1", "note": "[Compound 385, (E)-ethyl 4-(4-(5-methyl-2-(4-morpholinophenylao)pyrimidin-4-ylthio)phenylao)-4-oxobut-2-enoate]", "GI50": "< 1000"}, {"smiles": "Cc1cnc(Nc2ccc(N3CCN(C)CC3)cc2)nc1Sc1ccc(N)cc1", "note": "[Compound 244, 4-(4-aophenylthio)-5-methyl-N-(4-(4-methylpiperazin-1-yl)phenyl)pyrimidin-2-ae]", "GI50": "< 5000"}]}]}
